Patent US5770573A, “CS-1 peptidomimetics, compositions and methods of using the same” (Cytel Corporation, priority 1995, dated 1998)
Square brackets hold non-standard residues; d marks the D form. Peptide text beside a SMILES is read from it. * marks the point of attachment. PhAc = O=C(Cc1ccccc1)*

Legend:
[1] = tested on: Jurkat cells; assay: Binding of Jurkat cells to frozen human RA synovial sections; assay type: cell-based; details: 500 μg/ml
Method: Binding studies were carried out using the Jurkat T cell line and frozen RA synovial sections. […] Stimulated MOLT-4 cells behaved similarly.
The absolute value of that IC50 value is about 0.5 μmolar.

[2] = tested on: immune T cells; details: about 50 μg/ml admixed with immune T cells; cited from earlier work
[3] = tested on: rabbit cardiac allograft coronary arteries; assay: Rabbit cardiac allograft model; assay type: in vivo; for Expression on Coronary Arteries: ICAM-1: key: -: negative; ±: minimal; +: little; ++: moderately abundant; +++: very abundant; for Expression on Coronary Arteries: Macrophages: key: -: negative; ±: minimal; +: little; ++: moderately abundant; +++: very abundant; for Expression on Coronary Arteries: T cells: key: -: negative; ±: minimal; +: little; ++: moderately abundant; +++: very abundant; for Expression on Coronary Arteries: Total Fibronectin: key: -: negative; ±: minimal; +: little; ++: moderately abundant; +++: very abundant
Description: New Zealand white rabbit SPF hearts were allografted into the necks of similar rabbits to assay a graft-vs-host immunorejection model and the affect of a contemplated compound on that immunoinflammatory response.
Experimental animal model New Zealand white female rabbits (Charles River Lab., Saint Laurent, Quebec), between 3.5 and 4 kg underwent heterotopic cardiac transplant following an experimental protocol previously described [Alonso et al., Am. J. Pathol., 87:415-442 (1977); Clausell et al., Circulation, 89:2768-2779 (1994)]. The animals were unselected to favor an HLA-mismatch, the host rabbits were Pasteurella-free and the donors, outbred animals. Both host and donor rabbits were fed Purina 5321-0.5 percent cholesterol diet (Research Diets Inc., New Brunswick, N.J.), a strategy that has proven useful in accelerating the process of allograft arteriopathy [Alonso et al., Am. J. Pathol., 87:415-442 (1977)]. The diet was commenced four days prior to the transplant and continued in the recipient of the transplant until the completion of the experimental period.
The technique of heterotopic cardiac transplantation has been previously described [Clausell et al., Circulation, 89:2768-2779 (1994)]. Briefly, a vertical incision was performed in the anterior aspect of the neck of the recipient rabbit and the left common carotid artery and the ipsilateral external jugular vein were isolated. The cardiac allograft was placed in the neck by anastomosing the aorta end-to-side to the recipient's carotid artery and the pulmonary end-to-side to the recipient's external jugular vein, following a total period of ischemia for the donor hearts of approximately 30 minutes. Postoperative care was in compliance with the Principles of Laboratory Animal Care formulated by the Canadian National Society for Medical Research.
Beginning the day of the transplant, the animals were randomized and treated with either scrambled compound (control group) at 1 mg/kg s.c. or the inhibitor compound at 1 mg/kg s.c. The doses of the compounds were empirically extrapolated to the in vivo model based on preliminary in vitro studies, of Table 1. No other immunosuppression therapy was administered. The grafts were monitored daily by palpation and maintained for 7 to 8 days, a previously described endpoint that was associated with myocardial rejection (impaired cardiac contractility) and development of the allograft arteriopathy in this model [Clausell et al., Circulation, 89:2768-2779 (1994)]. A total of fourteen animals were studied in the control (n=7) and treated (n=7) groups.
Preparation of the hearts The animals were sacrificed using a lethal dose of euthanol (480 mg i.v.) (MTC Pharmaceutical, Cambridge, Oreg.), host and donor hearts were removed, and the coronary arteries were perfused with saline through the aorta, followed by light fixation by perfusion with 2 percent paraformaldehyde (Sigma, St, Louis, Mo.). […] Different sections of the hearts were either saved in 10 percent formalin (BDH Inc., Toronto, ON) for light microscopy studies or immediately frozen in O.T.C. Compound Tissue Tek (Miles Inc., Elkart, In.) for specific immunohistochemistry studies.
Three different paraffin-embedded tissue sections from host and donor hearts from both control and treated rabbits were stained by the Movat pentachrome method for light microscopy. Morphometric analysis was performed using a Zeiss microscope attached to a computer-generated video analysis system (Perceptics Inc., NuVision software), as described in Clausell et al., Circulation, 89:2768-2779 (1994). The number of vessels with intimal lesions were counted in all three heart sections from each animal studied and are expressed as a percentage of the total vessel number.
In the host hearts, 999 vessels in the control group and 1054 vessels in the treated group were analyzed. In the donor hearts, 827 vessels in the control group and 617 vessels in the treated group were analyzed. […]

[4] = Loss of potency in PBS containing 10 percent mouse or human serum; details: PBS at 7.2-7.4 with 10 percent mouse or human serum; 24 hours
[5] = tested on: delayed-type hypersensitivity murine model; assay: Adoptive transfer delayed type hypersensitivity in mice (oxazolone); assay type: in vivo, mouse
Method: An adoptive transfer delayed-type hypersensitivity murine model has been developed using splenic T cells primed to oxazolone. This model is described in Elices et al., Clin. Exp. Rheum., 11 (Suppl. 8):577-580 (1993), whose procedures were followed here.
Thus, BALB/c mice were shaved on the belly and painted (50 μl on the belly and 5 μl on each paw) with three percent oxazolone in acetone/olive oil (4:1) at days zero and 1. At day 5, the mice were sacrificed, their spleens removed, and splenic T cells were obtained via nylon wool columns.
Normal saline or saline containing 25×10^6 /animal of the oxazolone-immune T cells were separately injected into naive mice. The mice were then challenged by painting 10 μl of 2 percent oxazolone onto one ear each. All procedures were carried out under sterile conditions and in endotoxin-free buffers.
Prior to challenge or saline injection, the mice were implanted with pumps that subcutaneously administered normal saline, normal saline containing the compound, Compound ID No. 896.52, N-phenylacetyl-Leu-Asp-Phe-D-Pro-NH2, or normal saline containing a compound with a scrambled sequence continually at 6 mg/kg/day for a 24-hour time period. The swelling diameter at the site of challenge or saline injection was measured with a microcaliper 24 hours thereafter.
An expanded study was carried out as described above except that a scrambled compound control was not used as a control for further inhibitor compounds of Table 1 with larger groups of mice. Statistical analyses were carried out versus injection of vehicle alone.

[6] = tested on: EAE in SJL/J mice; assay: Experimental autoimmune encephalomyelitis in mice; assay type: in vivo; details: 1 mg/mouse i.p. at days 8 and 9; versus scrambled control compound
Method: EAE was induced in female SJL/J mice (8 to 14 weeks old) by immunization on day zero with 50 μg of a compound corresponding to positions 139-151 of PLP emulsified in a 1:1 mixture of PBS and complete Freund's adjuvant (CFA). Each mouse was injected with 0.2 ml of the adjuvant emulsion subcutaneously (s.c.) at two sites in the hind flank. All mice received 10^7 killed Bordetella pertussis units in 100 μl were injected intravenously 24 to 72 hours later.
Mice were observed daily, beginning at day 8 for clinical signs of EAE, and disease was scored on a scale of 0-5 as: 0=no disease; 1=floppy tail; 2=moderate hind limb weakness; 3=paraparesis; 4 =paraplegis with moderate forelimb weakness; 5 =qualdriplegis or premoribund state.
The inhibitor compound, Compound ID No. 896.52, N-phenylacetyl-Leu-Asp-Phe-D-Pro-NH2 was administered intraperitoneally at 1 mg/mouse in 0.2 ml of incomplete Freund's adjuvant at days 8 and 9. A compound having a scrambled sequence [N-phenylacetyl-Asp-Leu-Phe-D-Pro-NH2 ] was similarly administered to serve as a control.
Summed or averaged scores for clinical signs were plotted vs. time. The area under the resulting curves was calculated between day 8 and day 35 to calculate percentage inhibition of EAE by an inhibitor compound. The percent inhibition was calculated as follows:
%Inhibition=100-(Area of inhibitor compound+control area)×100

[7] = tested on: asthmatic sheep; assay: Treatment of asthmatic sheep (Ascaris suum antigen); assay type: in vivo
Method: Six asthmatic sheep were treated in a double blind cross-over study. […] This study was carried out generally as described in Abraham et al., J. Clin. Invest., 93:776-787 (1994).
The inhibitor compound used here was Compound ID No. 896.52, N-phenylacetyl-Leu-Asp-Phe-D-Pro-NH2, with a control compound that comprised the previously described compound having the same residues in a scrambled sequence. The vehicle for the nebulized compounds was phosphate-buffered saline. The compounds were administered at a dose of 1 mg/kg each, twice a day for three days prior to challenge, as well as 0.5 hours prior to and four hours post challenge on day 4. Because this was a crossover study, each animal received one or the other treatment, followed by a rest and then the other treatment. Each animal therefore served as its own control.
Post challenge airway responsiveness was also assayed. Here, specific lung resistance, SRL, returned to baseline values 24 hours after challenge, however, the sheep were hyperresponsive to inhaled carbachol at that time.

[8] = target: VLA-4 (Homo sapiens, UniProt P05556+P13612); details: cited from earlier work
Sequence of VLA-4 (P13612 34-1032): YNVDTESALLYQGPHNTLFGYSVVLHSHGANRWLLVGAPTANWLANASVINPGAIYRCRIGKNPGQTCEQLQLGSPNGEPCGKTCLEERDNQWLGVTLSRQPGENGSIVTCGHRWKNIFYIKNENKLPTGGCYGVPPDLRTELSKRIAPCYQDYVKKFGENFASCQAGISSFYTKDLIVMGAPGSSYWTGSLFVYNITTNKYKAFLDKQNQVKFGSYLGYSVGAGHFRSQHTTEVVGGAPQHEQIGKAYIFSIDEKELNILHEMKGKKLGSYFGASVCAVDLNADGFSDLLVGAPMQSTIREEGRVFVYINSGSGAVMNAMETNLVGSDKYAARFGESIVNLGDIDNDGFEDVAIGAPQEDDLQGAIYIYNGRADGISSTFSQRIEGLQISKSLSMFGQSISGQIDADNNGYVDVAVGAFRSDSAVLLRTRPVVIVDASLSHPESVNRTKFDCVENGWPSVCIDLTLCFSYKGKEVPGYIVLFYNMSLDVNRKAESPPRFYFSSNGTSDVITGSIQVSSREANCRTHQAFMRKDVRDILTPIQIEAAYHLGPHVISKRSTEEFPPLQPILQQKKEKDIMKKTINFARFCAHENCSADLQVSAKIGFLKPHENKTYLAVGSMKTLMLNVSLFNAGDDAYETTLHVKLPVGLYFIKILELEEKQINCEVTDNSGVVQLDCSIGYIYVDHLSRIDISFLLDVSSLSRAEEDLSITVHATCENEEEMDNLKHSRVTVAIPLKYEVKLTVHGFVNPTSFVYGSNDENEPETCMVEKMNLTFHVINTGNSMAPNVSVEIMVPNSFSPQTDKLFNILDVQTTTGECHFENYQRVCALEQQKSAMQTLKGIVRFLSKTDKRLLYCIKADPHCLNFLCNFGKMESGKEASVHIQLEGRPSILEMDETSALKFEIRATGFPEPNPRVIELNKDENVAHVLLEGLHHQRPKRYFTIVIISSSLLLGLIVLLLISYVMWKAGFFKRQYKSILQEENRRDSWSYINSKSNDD
Sequence of VLA-4 (P05556 21-798): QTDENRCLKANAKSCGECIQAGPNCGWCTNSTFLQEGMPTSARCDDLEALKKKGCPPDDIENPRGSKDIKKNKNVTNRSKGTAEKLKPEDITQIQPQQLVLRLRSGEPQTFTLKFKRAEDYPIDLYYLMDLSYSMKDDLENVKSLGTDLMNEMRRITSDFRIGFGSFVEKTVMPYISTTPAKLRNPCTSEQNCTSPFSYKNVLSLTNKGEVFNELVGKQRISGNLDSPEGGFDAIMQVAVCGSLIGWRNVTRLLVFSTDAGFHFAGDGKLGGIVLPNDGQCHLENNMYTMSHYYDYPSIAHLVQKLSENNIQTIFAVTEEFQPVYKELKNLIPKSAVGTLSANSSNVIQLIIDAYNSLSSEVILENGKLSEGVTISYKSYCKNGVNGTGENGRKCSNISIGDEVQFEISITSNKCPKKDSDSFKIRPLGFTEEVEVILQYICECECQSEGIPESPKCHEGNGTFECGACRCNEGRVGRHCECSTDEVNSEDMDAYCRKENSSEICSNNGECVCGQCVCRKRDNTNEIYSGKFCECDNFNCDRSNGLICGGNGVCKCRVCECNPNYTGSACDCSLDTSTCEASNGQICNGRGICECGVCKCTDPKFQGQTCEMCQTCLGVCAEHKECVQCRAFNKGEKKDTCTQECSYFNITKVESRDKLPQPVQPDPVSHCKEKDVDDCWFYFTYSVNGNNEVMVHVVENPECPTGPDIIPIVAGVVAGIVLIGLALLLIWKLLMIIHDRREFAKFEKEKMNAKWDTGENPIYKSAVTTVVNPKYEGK

## CC[C@H](C)[C@H](NC(=O)[C@H](CCC(=O)O)NC(=O)[C@@H]1CCCN1C(=O)CN)C(=O)N[C@@H](CC(C)C)C(=O)N[C@@H](CC(=O)O)C(=O)N[C@H](C(=O)N1CCC[C@H]1C(=O)N[C@@H](CO)C(=O)N[C@H](C(=O)O)[C@@H](C)O)C(C)C [Compound ID No. 872.01, GPEILDVPST] (H-GPEILDVPST-OH)
[1]
  inhibition of Jurkat cell adhesion to RA synovial sections: could be inhibited
[2]
  abrogation of transferred immune response: could abrogate a transferred immune response

## CC(C)C[C@H](NC(=O)Cc1ccccc1)C(=O)N[C@@H](CC(=O)O)C(=O)N[C@@H](Cc1ccccc1)C(=O)N1CCC[C@@H]1C(N)=O [Compound ID No. 896.52, N-phenylacetyl-Leu-Asp-Phe-D-Pro-NH2] (PhAc-LDF[dP]-NH2)
[3]; 1 mg/kg s.c., 7 to 8 days
  Expression on Coronary Arteries: ICAM-1: ±
  Expression on Coronary Arteries: Macrophages: ±
  Expression on Coronary Arteries: T cells: ±
  Expression on Coronary Arteries: Total Fibronectin: ±
  Expression on Coronary Arteries: VCAM-1: ±
[3]; 1 mg/kg s.c., 7 to 8 days, immunoperoxidase score
  Expression on Coronary Arteries: MHC Class II: ±
[3]; donor hearts, 1 mg/kg s.c.
  Vessel Intimal Thickening: Percent of Vessels: 35%
  Vessel Intimal Thickening: Severity (Percent of Vessel area): 16%
[3]; host heart
  Baseline (rabbit own host heart) of incidence: 12%
  Baseline (rabbit own host heart) of severity: 12%
[4]
  loss of potency in serum: no loss of potency

## CC(C)C[C@H](NC(=O)Cc1ccccc1)C(=O)N[C@@H](CC(=O)O)C(=O)N[C@@H](Cc1ccccc1)C(=O)N1CCC[C@@H]1C(N)=O [896.52] (PhAc-LDF[dP]-NH2)
[5]; 6 mg/kg/day s.c. by implanted pump for 24 hours, versus saline
  swelling at challenge site (initial study, FIG. 5): reduced this type of CS-1/VLA-4-mediated immunoinflammation
[5]; expanded study, versus vehicle alone, 6 mg/kg/day s.c. pump, 24 hours
  Percent Inhibition of post-challenge swelling: 36%
[6]
  clinical signs of EAE (FIG. 6): marked improvement in clinical signs
[7]; 24 hours after challenge, pre-challenge about 20-23 BU
  PC400, carbachol dosage to increase SRL 4-fold: about 27 BU
[7]; nebulized 1 mg/kg twice a day, versus control compound
  specific lung resistance SRL after challenge (FIG. 7): less of a change from baseline specific lung resistance (SRL)

## Leu-Asp-Val [LDV]
[8]
  affinity of VLA-4 binding relative to native CS-1 25-mer: at least two orders of magnitude lower affinity
